Columns and labels:
JAK1 = JAK1 (Homo sapiens (Human), UniProt P23458); test: JAK1 inhibitory activity, mobility shift assay, 1 mM ATP; assay type: biochemical; conditions: 1 mM ATP; Table 7
Protocol: (§1) The JAK1 inhibitory activity and the JAK2 inhibitory activity of the amide compounds provided in the above examples were tested by the method below.
(§2) Specific steps are described below. • 1. A 1× Kinase buffer was formulated. • 2. Concentration gradients of the compound were formulated: a test compound with an initial concentration of 10000 nM (JAK1) or 30000 nM (JAK2) was diluted in a 384-well plate to a 100% DMSO solution with a 100-fold final concentration, wherein the compound was diluted by a fold of 3 to 10 concentrations. 250 nL of the compound with the 100-fold final concentration was transferred with a dispenser Echo 550 to the target plate. • 3. A kinase solution with a 2.5-fold final concentration was prepared with the 1× Kinase buffer. • 4. […] The plate was centrifuged at 1000 rpm for 30 s, shaken and uniformly mixed, and incubated for 10 min at room temperature. • 6. A mixed solution of ATP (the final concentration of ATP=1 mM) and Kinase substrate with a 5/3-fold final concentration was formulated with the 1× Kinase buffer. • 7. 15 μL of the mixed solution of ATP and the substrate with the 5/3-fold final concentration was added to initiate the reaction. • 8. The 384-well plate was centrifuged at 1000 rpm for 30 s, shaken and uniformly mixed, and incubated for respective times at room temperature. • 9. The kinase reaction was stopped by adding 30 μL of a detection termination solution, and the plate was centrifuged at 1000 rpm for 30 s and shaken and uniformly mixed. • 10. The conversion rate was read with Caliper EZ Reader and the half maximal inhibitory concentration (IC50) was calculated.

JAK2 = JAK2 (Homo sapiens (Human), UniProt O60674); test: JAK2 inhibitory activity, mobility shift assay, 1 mM ATP; assay type: biochemical; conditions: Table 7
Protocol: as §1, §2

Sequence of JAK1 (P23458 850-1154): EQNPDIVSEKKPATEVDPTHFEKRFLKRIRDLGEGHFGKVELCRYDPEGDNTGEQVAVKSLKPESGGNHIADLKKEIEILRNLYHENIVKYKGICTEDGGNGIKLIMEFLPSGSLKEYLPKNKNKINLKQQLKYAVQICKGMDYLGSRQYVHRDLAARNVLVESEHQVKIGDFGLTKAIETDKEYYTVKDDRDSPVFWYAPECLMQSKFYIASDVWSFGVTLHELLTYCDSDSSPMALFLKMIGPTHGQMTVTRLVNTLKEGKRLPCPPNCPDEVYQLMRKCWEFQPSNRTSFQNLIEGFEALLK
Sequence of JAK2 (O60674 826-1132): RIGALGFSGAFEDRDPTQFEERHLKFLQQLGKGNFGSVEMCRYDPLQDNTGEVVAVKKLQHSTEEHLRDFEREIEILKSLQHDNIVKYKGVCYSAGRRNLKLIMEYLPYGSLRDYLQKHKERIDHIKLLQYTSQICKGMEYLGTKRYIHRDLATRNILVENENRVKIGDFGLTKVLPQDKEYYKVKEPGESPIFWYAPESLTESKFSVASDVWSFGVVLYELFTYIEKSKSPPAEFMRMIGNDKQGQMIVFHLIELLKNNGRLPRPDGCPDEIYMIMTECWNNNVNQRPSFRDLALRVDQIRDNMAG

SMILES	IC50 (JAK1) [nM]	IC50 (JAK2) [nM]
COc1nn(C)cc1Nc1ncc(C)c(-c2c[nH]c3c(NC(=O)[C@H]4CC(F)(F)CN4[C@@H]4CCOC4)cccc23)n1 [Example 34, (R)-4,4-difluoro-N-(3-(2-((3-methoxy-1-methyl-1H-pyrazol-4-yl)amino)-5-methylpyrimidin-4-yl)-1H-indol-7-yl)-1-((R)-tetrahydrofuran-3-yl)pyrrolidine-2-carboxamide]	161	2510
COc1nn(C)cc1Nc1nccc(-c2c[nH]c3c(NC(=O)[C@H]4C[C@H](F)CN4[C@H]4CCN(C)C4)cccc23)n1 (single isomer, unassigned) [Example 21]	262	> 30000
COc1nn(C)cc1Nc1ncc(C)c(-c2c[nH]c3c(NC(=O)[C@H]4CC(F)(F)CN4[C@H]4CCOC4)cccc23)n1 [Example 35, (R)-4,4-difluoro-N-(3-(2-((3-methoxy-1-methyl-1H-pyrazol-4-yl)amino)-5-methylpyrimidin-4-yl)-1H-indol-7-yl)-1-((S)-tetrahydrofuran-3-yl)pyrrolidine-2-carboxamide]	115	1890
COc1nn(C)cc1Nc1nccc(-c2c[nH]c3c(NC(=O)[C@H]4C[C@H](F)CN4[C@H]4CCNC4)cccc23)n1 (single isomer, unassigned) [Example 19]	368	15500
COc1nn(C)cc1Nc1nccc(-c2c[nH]c3c(NC(=O)[C@H]4CC(F)(F)CN4[C@H]4CCN(C)C4)cccc23)n1 [Example 37, (2R,3′S)-4,4-difluoro-N-(3-(2-((3-methoxy-1-methyl-1H-pyrazol-4-yl)amino)pyrimidin-4-yl)-1H-indol-7-yl)-1′-methyl-[1,3′-bipyrrolidine]-2-carboxamide]	216	10800
COc1nn(C)cc1Nc1nccc(-c2c[nH]c3c(NC(=O)[C@H]4C[C@H](F)CN4C4CCN(C)CC4)cccc23)n1 [Example 40, (2R,4S)-4-fluoro-N-(3-(2-((3-methoxy-1-methyl-1H-pyrazol-4-yl)amino)pyrimidin-4-yl)-1H-indol-7-yl)-1-(1-methylpiperidin-4-yl)pyrrolidine-2-carboxamide]	259	24300
COc1nn(C)cc1Nc1nccc(-c2c[nH]c3c(NC(=O)[C@H]4CC(F)(F)CN4C4CCN(C)CC4)cccc23)n1 [Example 17, (R)-4,4-difluoro-N-(3-(2-((3-methoxy-1-methyl-1H-pyrazol-4-yl)amino)pyrimidin-4-yl)-1H-indol-7-yl)-1-(1-methylpiperidin-4-yl)pyrrolidine-2-carboxamide]	216	10500
COc1nn(C)cc1Nc1nccc(-c2c[nH]c3c(NC(=O)[C@H]4C[C@H](F)CN4[C@@H]4CCN(C)C4)cccc23)n1 (single isomer, unassigned) [Example 20]	120	21500
COc1nn(C)cc1Nc1ncc(F)c(-c2c[nH]c3c(NC(=O)[C@H]4C[C@@H](F)CN4C4CCNCC4)cccc23)n1 [Example 7, (2R,4R)-4-fluoro-N-(3-(5-fluoro-2-((3-methoxy-1-methyl-1H-pyrazol-4-yl)amino)pyrimidin-4-yl)-1H-indol-7-yl)-1-(piperidin-4-yl)pyrrolidine-2-carboxamide]	152	4410

Stronger by IC50 (JAK1), values ahead:

IC50 (JAK1) [nM]	IC50 (JAK2) [nM]	SMILES
103	12000	CCO[C@H]1C[C@H](C(=O)Nc2cccc3c(-c4nc(Nc5cn(C)nc5OC)ncc4C)c[nH]c23)N(C2CCN(C)CC2)C1 [Example 12, (2R,4S)-4-ethoxy-N-(3-(2-((3-methoxy-1-methyl-1H-pyrazol-4-yl)amino)-5-methylpyrimidin-4-yl)-1H-indol-7-yl)-1-(1-methylpiperidin-4-yl)pyrrolidine-2-carboxamide]
92	11900	COc1nn(C)cc1Nc1ncc(C)c(-c2c[nH]c3c(NC(=O)[C@H]4C[C@H](F)CN4[C@H]4CCN(C)C4)cccc23)n1 [Example 31, (2R,3′S,4S)-4-fluoro-N-(3-(2-((3-methoxy-1-methyl-1H-pyrazol-4-yl)amino)-5-methylpyrimidin-4-yl)-1H-indol-7-yl)-1′-methyl-[1,3′-bipyrrolidine]-2-carboxamide]
91	12000	COc1nn(C)cc1Nc1nccc(-c2c[nH]c3c(NC(=O)[C@H]4CC(F)(F)CN4[C@@H]4CCN(C)C4)cccc23)n1 [Example 36, (2R,3′R)-4,4-difluoro-N-(3-(2-((3-methoxy-1-methyl-1H-pyrazol-4-yl)amino)pyrimidin-4-yl)-1H-indol-7-yl)-1′-methyl-[1,3′-bipyrrolidine]-2-carboxamide]
73	2820	COc1nn(C)cc1Nc1ncc(F)c(-c2c[nH]c3c(NC(=O)[C@@H]4CCCN4S(C)(=O)=O)cccc23)n1 [Example 1, (S)—N-(3-(5-fluoro-2-((3-methoxy-1-methyl-1H-pyrazol-4-yl)amino)pyrimidin-4-yl)-1H-indol-7-yl)-1-(methanesulfonyl)pyrrolidine-2-carboxamide]
70	2210	COc1nn(C)cc1Nc1ncc(C)c(-c2c[nH]c3c(NC(=O)[C@@H]4CCCN4S(C)(=O)=O)cccc23)n1 [Example 3, (S)-N-(3-(2-((3-methoxy-1-methyl-1H-pyrazol-4-yl)amino)-5-methylpyrimidin-4-yl)-1H-indol-7-yl)-1-(methanesulfonyl)pyrrolidine-2-carboxamide]
67	13400	COc1nn(C)cc1Nc1ncc(C)c(-c2c[nH]c3c(NC(=O)[C@H]4CCCN4[C@H]4CCN(C)C4)cccc23)n1 [Example 29, (2R,3′S)-N-(3-(2-((3-methoxy-1-methyl-1H-pyrazol-4-yl)amino)-5-methylpyrimidin-4-yl)-1H-indol-7-yl)-1′-methyl-[1,3′-bipyrrolidine]-2-carboxamide]
55	4300	COc1nn(C)cc1Nc1ncc(F)c(-c2c[nH]c3c(NC(=O)[C@H]4CCCN4C4CCNCC4)cccc23)n1 [Example 5, (R)—N-(3-(5-fluoro-2-((3-methoxy-1-methyl-1H-pyrazol-4-yl)amino)pyrimidin-4-yl)-1H-indol-7-yl)-1-(piperidin-4-yl)pyrrolidine-2-carboxamide]
53	652	COc1nn(C)cc1Nc1ncc(Cl)c(-c2c[nH]c3c(NC(=O)[C@@H]4CCCN4S(C)(=O)=O)cccc23)n1 [Example 4, (S)-N-(3-(5-chloro-2-((3-methoxy-1-methyl-1H-pyrazol-4-yl)amino)pyrimidin-4-yl)-1H-indol-7-yl)-1-(methanesulfonyl)pyrrolidine-2-carboxamide]
50	4850	COc1nn(C)cc1Nc1ncc(F)c(-c2c[nH]c3c(NC(=O)[C@H]4C[C@H](F)CN4[C@H]4CCN(C)C4)cccc23)n1 [Example 39, (2R,3′S,4S)-4-fluoro-N-(3-(5-fluoro-2-((3-methoxy-1-methyl-1H-pyrazol-4-yl)amino)pyrimidin-4-yl)-1H-indol-7-yl)-1′-methyl-[1,3′-bipyrrolidine]-2-carboxamide]
46	7280	COc1nn(C)cc1Nc1ncc(F)c(-c2c[nH]c3c(NC(=O)[C@H]4CCCN4[C@@H]4CCNC4)cccc23)n1 [Example 22, (2R,3′R)-N-(3-(5-fluoro-2-((3-methoxy-1-methyl-1H-pyrazol-4-yl)amino)pyrimidin-4-yl)-1H-indol-7-yl)-[1,3′-bipyrrolidine]-2-carboxamide]
40	3340	COc1nn(C)cc1Nc1ncc(C)c(-c2c[nH]c3c(NC(=O)[C@H]4CC(F)(F)CN4C4CCN(C)CC4)cccc23)n1 [Example 16, (R)-4,4-difluoro-N-(3-(2-((3-methoxy-1-methyl-1H-pyrazol-4-yl)amino)-5-methylpyrimidin-4-yl)-1H-indol-7-yl)-1-(1-methylpiperidin-4-yl)pyrrolidine-2-carboxamide]
40	14600	COc1nn(C)cc1Nc1ncc(F)c(-c2c[nH]c3c(NC(=O)[C@H]4CCCN4[C@@H]4CCN(C)C4)cccc23)n1 [Example 24, (2R,3′R)-N-(3-(5-fluoro-2-((3-methoxy-1-methyl-1H-pyrazol-4-yl)amino)pyrimidin-4-yl)-1H-indol-7-yl)-1′-methyl-[1,3′-bipyrrolidine]-2-carboxamide]
39	3430	COc1nn(C)cc1Nc1ncc(C)c(-c2c[nH]c3c(NC(=O)[C@H]4CC(F)(F)CN4[C@H]4CCN(C)C4)cccc23)n1 [Example 33, (2R,3′S)-4,4-difluoro-N-(3-(2-((3-methoxy-1-methyl-1H-pyrazol-4-yl)amino)-5-methylpyrimidin-4-yl)-1H-indol-7-yl)-1′-methyl-[1,3′-bipyrrolidine]-2-carboxamide]
34	5280	COc1nn(C)cc1Nc1ncc(F)c(-c2c[nH]c3c(NC(=O)[C@H]4C[C@H](F)CN4[C@@H]4CCN(C)C4)cccc23)n1 [Example 38, (2R,3′R,4S)-4-fluoro-N-(3-(5-fluoro-2-((3-methoxy-1-methyl-1H-pyrazol-4-yl)amino)pyrimidin-4-yl)-1H-indol-7-yl)-1′-methyl-[1,3′-bipyrrolidine]-2-carboxamide]
